Results: article PMC165446 (BMC Microbiology, 2003)

Molecular target: T1, methionine adenosyltransferase (MAT; S-adenosylmethionine synthetase) (Mycolicibacterium smegmatis, UniProt A0QWT3)
T1 sequence (A0QWT3 1-399): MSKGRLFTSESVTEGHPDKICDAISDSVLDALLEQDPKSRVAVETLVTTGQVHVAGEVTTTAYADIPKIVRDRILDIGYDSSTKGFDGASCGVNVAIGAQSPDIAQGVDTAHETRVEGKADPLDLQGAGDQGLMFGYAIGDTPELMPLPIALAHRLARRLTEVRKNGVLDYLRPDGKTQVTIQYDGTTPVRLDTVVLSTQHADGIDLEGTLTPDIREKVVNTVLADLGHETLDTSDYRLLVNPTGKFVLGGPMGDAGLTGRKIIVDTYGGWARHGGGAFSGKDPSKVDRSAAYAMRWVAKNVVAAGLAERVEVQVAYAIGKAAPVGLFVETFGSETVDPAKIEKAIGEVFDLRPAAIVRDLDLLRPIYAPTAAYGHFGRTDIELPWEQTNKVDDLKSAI
Assay: HPLC assay of SAM formation, Dixon plots with varied ATP
Format: biochemical

Row | SMILES | Ki [mM]
1 | Nc1nc2nn[nH]c2c(=O)[nH]1 [8-azaguanine] | 4.7 ± 0.77
2 | Cn1cnc([N+](=O)[O-])c1Sc1ncnc2nc[nH]c12 [azathioprine] | 3.74 ± 1
